Reference: ChEMBL document CHEMBL1145898, “Molecular docking studies of natural cholinesterase-inhibiting steroidal alkaloids from Sarcococca saligna” (J Med Chem, 2003)
pIC50, pKi: −log10 of the molar value.

Experiments:
Acetylcholinesterase [1] = target: T1, Acetylcholinesterase (Torpedo californica, UniProt P04058); test: In vitro binding affinity was determined against acetylcholinesterase from torpedo californica; set-up: species or system Tetronarce californica
Acetylcholinesterase [2] = target: T1, Acetylcholinesterase; test: In vitro anticholinesterase activity was determined against acetylcholinesterase from Torpedo californica; set-up: species or system Tetronarce californica

T1 sequence (P04058 whole entry): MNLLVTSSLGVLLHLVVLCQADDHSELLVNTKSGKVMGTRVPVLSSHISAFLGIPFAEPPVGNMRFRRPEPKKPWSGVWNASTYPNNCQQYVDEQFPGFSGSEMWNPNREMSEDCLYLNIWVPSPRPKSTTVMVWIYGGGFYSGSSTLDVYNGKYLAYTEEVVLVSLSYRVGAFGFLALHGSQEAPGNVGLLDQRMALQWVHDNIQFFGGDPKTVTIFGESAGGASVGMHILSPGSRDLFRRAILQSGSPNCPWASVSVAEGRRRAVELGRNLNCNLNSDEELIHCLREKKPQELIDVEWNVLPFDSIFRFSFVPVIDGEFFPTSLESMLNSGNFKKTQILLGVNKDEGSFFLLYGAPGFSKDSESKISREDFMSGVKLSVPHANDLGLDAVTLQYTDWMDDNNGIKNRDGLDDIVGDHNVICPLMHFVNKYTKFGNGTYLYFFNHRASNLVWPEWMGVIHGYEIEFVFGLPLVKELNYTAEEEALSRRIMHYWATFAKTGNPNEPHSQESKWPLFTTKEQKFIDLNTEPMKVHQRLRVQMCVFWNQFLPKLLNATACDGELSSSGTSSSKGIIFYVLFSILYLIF

C/C=C(\C)C(=O)N[C@H]1CC[C@@]2(C)C(=CC[C@H]3C4=CC[C@H]([C@H](C)N(C)C)[C@@]4(C)CC[C@@H]32)C1=O
pKi (Acetylcholinesterase [1]): 5.58

C/C=C(\C)C(=O)N[C@@H]1C=C2CC[C@@H]3[C@H](CC[C@]4(C)C([C@H](C)N(C)C)=CC[C@@H]34)[C@@]2(C)C[C@H]1O
pIC50 (Acetylcholinesterase [2]): 3.73

CC(=O)O[C@H]1[C@@H](NC(=O)C=C(C)C)CC[C@]2(C)[C@H]3CC[C@]4(C)[C@@H]([C@H](C)N(C)C)CC[C@H]4[C@@H]3CC[C@@H]12
pIC50 (Acetylcholinesterase [2]): 5.07 | pKi (Acetylcholinesterase [1]): 4.75

CN[C@H]1CC[C@@]2(C)[C@@H](CC[C@@H]3[C@@H]2CC[C@]2(C)[C@@H]([C@H](C)N(C)C(C)=O)CC[C@@H]32)C1
pIC50 (Acetylcholinesterase [2]): 3.69 | pKi (Acetylcholinesterase [1]): 3.67

C[C@@H]([C@H]1CC[C@H]2[C@@H]3CC[C@H]4C(=O)C(NC(=O)c5ccccc5)=CC[C@]4(C)[C@H]3CC[C@]12C)N(C)C
pIC50 (Acetylcholinesterase [2]): 5.28 | pKi (Acetylcholinesterase [1]): 5.52

C/C=C(\C)C(=O)N[C@@H]1[C@H](OC(C)=O)[C@@H]2CC[C@H]3C4=CC[C@H]([C@H](C)N(C)C)[C@@]4(C)CC[C@@H]3[C@@]2(C)C[C@@H]1O
pIC50 (Acetylcholinesterase [2]): 4.21 | pKi (Acetylcholinesterase [1]): 3.87

C[C@@H]([C@H]1CC[C@H]2[C@@H]3CC[C@H]4C[C@@H](NC(=O)c5ccccc5)[C@@H](O)C[C@]4(C)[C@H]3CC[C@]12C)N(C)C
pIC50 (Acetylcholinesterase [2]): 4.11

C/C=C(\C)C(=O)N[C@H]1CC[C@@]2(C)C(=CC[C@H]3[C@@H]4CC[C@H]([C@H](C)N(C)C)[C@@]4(C)CC[C@@H]32)C1=O
pIC50 (Acetylcholinesterase [2]): 5.15 | pKi (Acetylcholinesterase [1]): 5.27

C/C(=C\C(=O)N(C)[C@H]1CC[C@@]2(C)[C@@H](CC[C@@H]3[C@@H]2CC[C@]2(C)[C@@H]([C@H](C)N(C)C)CC[C@@H]32)C1)C(C)C
pKi (Acetylcholinesterase [1]): 5.39

C/C(=C\C(=O)N[C@H]1CC[C@@]2(C)[C@@H](CC[C@@H]3[C@@H]2CC[C@]2(C)[C@@H]([C@H](C)N(C)C)CC[C@@H]32)C1)C(C)C
pIC50 (Acetylcholinesterase [2]): 4.30 | pKi (Acetylcholinesterase [1]): 5.04

CC(=O)O[C@H]1[C@@H](NC(=O)c2ccccc2)[C@@H](O)C[C@]2(C)[C@H]3CC[C@]4(C)[C@@H]([C@H](C)N(C)C)CC[C@H]4[C@@H]3CC[C@@H]12
pIC50 (Acetylcholinesterase [2]): 3.64 | pKi (Acetylcholinesterase [1]): 3.90

C/C=C(\C)C(=O)N[C@@H]1[C@H](OC(C)=O)[C@@H]2CC[C@@H]3[C@H](CC[C@]4(C)[C@@H]([C@H](C)N(C)C)CC[C@@H]34)[C@@]2(C)C[C@@H]1O
pIC50 (Acetylcholinesterase [2]): 3.74

CC(=O)N[C@H]1CC[C@@]2(C)[C@@H](CC[C@@H]3[C@@H]2CC[C@]2(C)[C@@H]([C@H](C)N(C)C)CC[C@@H]32)C1
pIC50 (Acetylcholinesterase [2]): 4.16 | pKi (Acetylcholinesterase [1]): 4.04

C/C(=C\C(=O)N(C)[C@H]1CC[C@@]2(C)[C@@H](CC[C@@H]3[C@@H]2CC[C@]2(C)C([C@H](C)N(C)C)=CC[C@@H]32)C1)C(C)C
pIC50 (Acetylcholinesterase [2]): 5.21 | pKi (Acetylcholinesterase [1]): 4.97

C[C@@H]([C@H]1CC[C@H]2[C@@H]3CC[C@H]4C[C@@H](N(C)C(=O)/C=C/c5ccccc5)CC[C@]4(C)[C@H]3CC[C@]12C)N(C)C [SALIGCINNAMIDE]
pIC50 (Acetylcholinesterase [2]): 4.70 | pKi (Acetylcholinesterase [1]): 4.91
